Converted amounts (≈) assume the structure as drawn.
What was measured:
Assay type in all cases: functional
[1] = test system: Clostridioides difficile; test: Antimicrobial activity against Clostridium difficile CD196 by broth dilution method
[2] = test system: Clostridioides difficile; test: Antimicrobial activity against Clostridium difficile 6269 by broth dilution method
[3] = test system: Clostridioides difficile; test: Antimicrobial activity against Clostridium difficile CD07-259 by broth dilution method
[4] = test system: Clostridioides difficile; test: Antimicrobial activity against Clostridium difficile 6425 by broth dilution method
[5] = test system: Clostridioides difficile; test: Antimicrobial activity against Clostridium difficile ATCC 43603 by broth dilution method
[6] = test system: Clostridioides difficile; test: Induction of Cwp84 protease expression in Clostridium difficile ATCC 43603-M1 at 0.5 times MIC by immunoblot analysis
[7] = test system: Clostridioides difficile; test: Upregulation of slpA gene expression in Clostridium difficile ATCC 43603 at 0.5 times MIC by real-time PCR analysis relative to control
[8] = test system: Clostridioides difficile; test: Induction of Cwp84 protease expression in Clostridium difficile 6425 at 0.5 times MIC by immunoblot analysis
[9] = test system: Clostridioides difficile; test: Upregulation of cwp84 gene expression in Clostridium difficile ATCC 43603-M1 at 0.5 times MIC by real-time PCR analysis relative to control
[10] = test system: Clostridioides difficile; test: Upregulation of cwp84 gene expression in Clostridium difficile ATCC 43603 at 0.5 times MIC by real-time PCR analysis relative to control
[11] = test system: Clostridioides difficile; test: Upregulation of slpA gene expression in Clostridium difficile CD07-259 at 0.5 times MIC by real-time PCR analysis relative to control
[12] = test system: Clostridioides difficile; test: Upregulation of slpA gene expression in Clostridium difficile 6425 at 0.5 times MIC by real-time PCR analysis relative to control
[13] = test system: Clostridioides difficile; test: Upregulation of fbp68 gene expression in Clostridium difficile ATCC 43603-M1 at 0.5 times MIC by real-time PCR analysis relative to control
[14] = test system: Clostridioides difficile; test: Antimicrobial activity against Clostridium difficile ATCC 43603-M1 by broth dilution method
[15] = test system: Clostridioides difficile; test: Upregulation of fbp68 gene expression in Clostridium difficile ATCC 43603 at 0.5 times MIC by real-time PCR analysis relative to control
[16] = Antimicrobial activity against Clostridium difficile CD196 M1 by broth dilution method; settings: Clostridioides difficile
[17] = test system: Clostridioides difficile; test: Upregulation of slpA gene expression in Clostridium difficile ATCC 43603-M1 at 0.5 times MIC by real-time PCR analysis relative to control

| SMILES | MIC [1] | MIC [2] | MIC [3] | MIC [4] | MIC [5] | Activity [6] | fold change (FC) [7] | Activity [8] | fold change (FC) [9] | fold change (FC) [10] | fold change (FC) [11] | fold change (FC) [12] | fold change (FC) [13] | MIC [14] | fold change (FC) [15] | MIC [16] | fold change (FC) [17] |
| --- | --- | --- | --- | --- | --- | --- | --- | --- | --- | --- | --- | --- | --- | --- | --- | --- | --- |
| CC1(C)S[C@@H]2[C@H](NC(=O)[C@H](N)c3ccccc3)C(=O)N2[C@H]1C(=O)O [AMPICILLIN] | 8 µg/mL (≈ 22.9 µM) | 2 µg/mL (≈ 5.72 µM) | 4 µg/mL (≈ 11.4 µM) | 4 µg/mL (≈ 11.4 µM) | 2 µg/mL (≈ 5.72 µM) |  |  |  |  |  |  |  |  |  |  |  |  |
| CCC[C@@H]1C[C@@H](C(=O)N[C@@H]([C@H]2O[C@H](SC)[C@H](O)[C@@H](O)[C@H]2O)[C@H](C)Cl)N(C)C1 [CLINDAMYCIN] | 128 µg/mL (≈ 301 µM) | 1 µg/mL (≈ 2.35 µM) | 4 µg/mL (≈ 9.41 µM) | 128 µg/mL (≈ 301 µM) | 4 µg/mL (≈ 9.41 µM) |  |  |  |  |  |  |  |  |  |  |  |  |
| CC1COc2c(N3CCN(C)CC3)c(F)cc3c(=O)c(C(=O)O)cn1c23 (configuration not stated) [OFLOXACIN] | 8 µg/mL (≈ 22.1 µM) | 32 µg/mL (≈ 88.6 µM) | 256 µg/mL (≈ 708 µM) | 256 µg/mL (≈ 708 µM) | 8 µg/mL (≈ 22.1 µM) | 25% | 3.9 | 130% | 67.4 | 3.2 | 22 | 4 | 2.1 | 256 µg/mL (≈ 708 µM) | 4.8 | 128 µg/mL (≈ 354 µM) | 32.8 |

Reference: ChEMBL document CHEMBL1649303, “Effects of subinhibitory concentrations of antibiotics on colonization factor expression by moxifloxacin-susceptible and moxifloxacin-resistant Clostridium difficile strains” (2009)
